For this experiment, the system named is C. parvum strain UGA1. Put plainly: C. parvum growth inhibition assay (Nluc luminescence in HCT-8 cells). Format: cell-based, Cryptosporidium parvum. Conditions: for inhibition at 1 µM / inhibition at 10 µM: HCT-8; for inhibition at 1 µM: read-out: % inh @ 1 uM C. parvum; for inhibition at 10 µM: read-out: % inh @ 10 uM C. parvum; for EC50: C. parvum growth inhibition in HCT-8 cells, 48 hours, 6 concentrations 10-0.04 μM.

Setting [1] is: Cryptosporidium parvum, single point inhibition @ 1 uM.
Setting [2] is: Cryptosporidium parvum, single point inhibition @ 10 uM.
Setting [3] is: Cryptosporidium parvum, HCT-8, 48 h.
The mark [4] stands for this setting: Cryptosporidium parvum, single point inhibition at 1 uM.
Setting [5] is: Cryptosporidium parvum, single point inhibition at 10 uM.

The EC50 is the concentration needed to bring the measured effect to its halfway point. Read a high EC50 as weaker potency.

Where two headings read alike, the source gives them in different places.

Regarding `Cc1nn(C)cc1C(=O)Nc1cc2[nH]c(-c3ccnc(OC(C)C(F)(F)F)n3)cc2cn1` (stereo in doubt) [Example 136, (S)-1,3-dimethyl-N-(2-(2-(1,1,1-trifluoropropan-2-yloxy)pyrimidin-4-yl)-1H-pyrrolo[3,2-c]pyridin-6-yl)-1H-pyraozle-4-carboxamide], the inhibition at 1 µM under setting [1] fell in the range of 0 to 33%. For the same compound, the inhibition at 10 µM under setting [2] was 67 to 100%. Taken in the same sequence, the figures for `COc1nccc(-c2cc3cnc(NC(=O)c4cnn(CC5CCOC5)c4)cc3[nH]2)n1` (stereo in doubt) [Example 184, (R)-N-(2-(2-methoxypyrimidin-4-yl)-1H-pyrrolo[3,2-c]pyridin-6-yl)-1-((tetrahydrofuran-3-yl)methyl)-1H-pyrazole-4-carboxamide] were 0 to 33% and 67 to 100%.

Consider `CC(C)n1cc(C(=O)Nc2cc3[nH]c(-c4ccncc4)cc3cn2)cn1` [Example 162, 1-isopropyl-N-(2-(pyridin-4-yl)-1H-pyrrolo[3,2-c]pyridin-6-yl)-1H-pyrazole-4-carboxamide], for which the inhibition at 1 µM under setting [1] fell in the range of 0 to 33%. The inhibition at 10 µM under setting [2] was in the range of 67 to 100%. On to `c1cncc(-c2cc3cnc(NC4CCOCC4)cc3[nH]2)c1` [Example 72, 2-(pyridin-3-yl)-N-(tetrahydro-2H-pyran-4-yl)-1H-pyrrolo[3,2-c]pyridin-6-amine], for which, under setting [3], the EC50 was > 1 µM. Further, under setting [1], the inhibition at 1 µM fell in the range of 0 to 33%. For the same compound, the inhibition at 10 µM under setting [2] fell in the range of 0 to 33%. Take `Cc1cc(-c2cc3cnc(NC4CCOCC4)cc3[nH]2)ncn1` [Example 38]: the EC50 under setting [3] was > 1 µM.

Regarding `COc1nccc(-c2cc3cnc(NC(=O)CC4COC4)cc3n2C)n1` [Example 87, N-(2-(2-methoxypyrimidin-4-yl)-1-methyl-1H-pyrrolo[3,2-c]pyridin-6-yl)-2-(oxetan-3-yl)acetamide], the EC50 under setting [3] was > 1 µM. Also, the inhibition at 1 µM under setting [1] lay within 33 to 66%. Besides, the inhibition at 10 µM under setting [2] was 0 to 33%. On to `O=C(Nc1cc2[nH]c(-c3ccncc3)cc2cn1)[C@@H]1CCOC1` [Example 135, (R)-N-(2-(pyridin-4-yl)-1H-pyrrolo[3,2-c]pyridin-6-yl)tetrahydrofuran-3-carboxamide], for which the inhibition at 1 µM under setting [1] was 0 to 33%. The inhibition at 10 µM under setting [2] fell in the range of 67 to 100%.

For the compound `Cn1cnc(-c2cc3cnc(NC(=O)C4CC4)cc3n2C)c1` [Example 342, N-(1-methyl-2-(1-methyl-1H-imidazol-4-yl)-1H-pyrrolo[3,2-c]pyridin-6-yl)cyclopropanecarboxamide], the concentration giving a half-maximal response (EC50) under setting [3] was > 1 µM. Turning to `COCCOc1ccc(C(=O)Nc2cc3[nH]c(-c4ccnc(OC)n4)cc3cn2)cc1OC` [Example 252, 3-methoxy-4-(2-methoxyethoxy)-N-(2-(2-methoxypyrimidin-4-yl)-1H-pyrrolo[3,2-c]pyridin-6-yl)benzamide], the inhibition at 1 µM under setting [4] was in the range of 0 to 33%. Under setting [5], the inhibition at 10 µM fell in the range of 0 to 33%. For `Cc1cc(-c2cc3cnc(NC(=O)C4CC4)cc3n2CCO)ccn1` [Example 93, N-(1-(2-hydroxyethyl)-2-(2-methylpyridin-4-yl)-1H-pyrrolo[3,2-c]pyridin-6-yl)cyclopropanecarboxamide], under setting [3], the EC50 was > 1 µM. In addition, under setting [1], the inhibition at 1 µM was in the range of 0 to 33%. Besides, the inhibition at 10 µM under setting [2] lay within 0 to 33%. Consider `Cn1cc(-c2cc3cnc(NC(=O)C4CC4)cc3n2C)cn1` [Example 102, N-(1-methyl-2-(1-methyl-1H-pyrazol-4-yl)-1H-pyrrolo[3,2-c]pyridin-6-yl)cyclopropanecarboxamide], for which the EC50 under setting [3] is > 1 µM. On the same count and under the same terms, under `Cn1c(-c2ccnc(NCC(F)(F)F)c2)cc2cnc(NC3CCOCC3)cc21` [Example 382, 1-methyl-N-(tetrahydro-2H-pyran-4-yl)-2-(2-(2,2,2-trifluoroethylamino)pyridin-4-yl)-1H-pyrrolo[3,2-c]pyridin-6-amine] stands > 1 µM. Consider `Cc1cc(-c2cc3cnc(NC(=O)c4cnn(C)c4)cc3[nH]2)ncn1` [Example 328, 1-methyl-N-(2-(6-methylpyrimidin-4-yl)-1H-pyrrolo[3,2-c]pyridin-6-yl)-1H-pyrazole-4-carboxamide], for which, under setting [4], the inhibition at 1 µM lay within 0 to 33%. The inhibition at 10 µM under setting [5] lay in the range of 0 to 33%. In the case of `Cc1cc(-c2cc3cnc(NC(=O)c4c(C)noc4C)cc3[nH]2)ccn1` [Example 221, 3,5-dimethyl-N-(2-(2-methylpyridin-4-yl)-1H-pyrrolo[3,2-c]pyridin-6-yl)isoxazole-4-carboxamide], the inhibition at 1 µM under setting [4] was 0 to 33%. Further, the inhibition at 10 µM under setting [5] was in the range of 33 to 66%. Regarding `Cc1cc(-c2cc3cnc(Nc4cccc(-c5nc[nH]n5)c4)cc3[nH]2)ccn1` [Example 66, N-(3-(1H-1,2,4-triazol-3-yl)phenyl)-2-(2-methylpyridin-4-yl)-1H-pyrrolo[3,2-c]pyridin-6-amine], the EC50 under setting [3] was > 1 µM. Also, under setting [1], the inhibition at 1 µM lay in the range of 67 to 100%. The inhibition at 10 µM under setting [2] is 67 to 100%. In the case of `Cn1cc(-c2cc3cnc(Nc4ccccc4)cc3n2C)cn1` [Example 70, 1-methyl-2-(1-methyl-1H-pyrazol-4-yl)-N-phenyl-1H-pyrrolo[3,2-c]pyridin-6-amine], under setting [3], the EC50 was > 1 µM. Further, the inhibition at 1 µM under setting [1] lay in the range of 33 to 66%. The inhibition at 10 µM under setting [2] lay in the range of 67 to 100%. Take `O=C(Nc1cc2[nH]c(-c3cnc[nH]3)cc2cn1)C1CC1` [Example 330, N-(2-(1H-imidazol-5-yl)-1H-pyrrolo[3,2-c]pyridin-6-yl)cyclopropanecarboxamide]: the inhibition at 1 µM under setting [4] was in the range of 0 to 33%. Further, the inhibition at 10 µM under setting [5] fell in the range of 0 to 33%.

On to `Cc1cc2cnc(NC(=O)C3CC3)cc2[nH]1` [Example 327, N-(2-methyl-1H-pyrrolo[3,2-c]pyridin-6-yl)cyclopropanecarboxamide], for which, under setting [4], the inhibition at 1 µM is 0 to 33%. The inhibition at 10 µM under setting [5] lay within 0 to 33%. As to `COCCn1cc(Nc2cc3[nH]c(-c4ccncc4)cc3cn2)cn1` [Example 192, N-(1-(2-methoxyethyl)-1H-pyrazol-4-yl)-2-(pyridin-4-yl)-1H-pyrrolo[3,2-c]pyridin-6-amine], the inhibition at 1 µM under setting [1] lay in the range of 33 to 66%. In addition, the inhibition at 10 µM under setting [2] is 67 to 100%. With `Cc1cc(-c2cc3cnc(NC(=O)C4CCCOC4)cc3[nH]2)ccn1` (stereo not shown) [Example 155, N-(2-(2-methylpyridin-4-yl)-1H-pyrrolo[3,2-c]pyridin-6-yl)tetrahydro-2H-pyran-3-carboxamide], under setting [1], the inhibition at 1 µM lay in the range of 0 to 33%. Moreover, under setting [2], the inhibition at 10 µM is 67 to 100%. `Cn1cc(C(=O)Nc2cc3[nH]c(-c4cc(C#N)ccn4)cc3cn2)cn1` [Example 300, N-(2-(4-cyanopyridin-2-yl)-1H-pyrrolo[3,2-c]pyridin-6-yl)-1-methyl-1H-pyrazole-4-carboxamide]: under setting [4], the inhibition at 1 µM was 0 to 33%. In addition, the inhibition at 10 µM under setting [5] lay within 0 to 33%. On to `CN(CC(F)(F)F)c1cc(-c2cc3cnc(NC4CCOCC4)cc3[nH]2)ccn1` [Example 381, 2-(2-(methyl(2,2,2-trifluoroethyl)amino)pyridin-4-yl)-N-(tetrahydro-2H-pyran-4-yl)-1H-pyrrolo[3,2-c]pyridin-6-amine], for which the EC50 under setting [3] is > 1 µM. For `Cn1c(-c2ccncc2)cc2cnc(Nc3cnn(C4CCOCC4)c3)cc21` [Example 138, 1-methyl-2-(pyridin-4-yl)-N-(1-(tetrahydro-2H-pyran-4-yl)-1H-pyrazol-4-yl)-1H-pyrrolo[3,2-c]pyridin-6-amine], under setting [1], the inhibition at 1 µM lay in the range of 0 to 33%. Moreover, under setting [2], the inhibition at 10 µM lay within 67 to 100%. `FC(F)(F)CNc1cc(-c2cc3cnc(NC4CCOCC4)cc3[nH]2)ccn1` [Example 363, N-(tetrahydro-2H-pyran-4-yl)-2-(2-(2,2,2-trifluoroethylamino)pyridin-4-yl)-1H-pyrrolo[3,2-c]pyridin-6-amine]: the EC50 under setting [3] was < 0.5 µM. On to `COc1ccc(Nc2cc3c(cn2)cc(-c2cnn(C)c2)n3C)c(C)c1` [Example 258, N-(4-methoxy-2-methylphenyl)-1-methyl-2-(1-methyl-1H-pyrazol-4-yl)-1H-pyrrolo[3,2-c]pyridin-6-amine], for which, under setting [4], the inhibition at 1 µM lay in the range of 0 to 33%. Also, the inhibition at 10 µM under setting [5] fell in the range of 0 to 33%. Turning to `Cc1cc(-c2cc3cnc(NC(=O)[C@H]4CCCO4)cc3[nH]2)ccn1` [Example 212, (R)-N-(2-(2-methylpyridin-4-yl)-1H-pyrrolo[3,2-c]pyridin-6-yl)tetrahyrdofuran-2-carboxamide], the “% inh @ 1 uM C. parvum” value (single point inhibition at 1 uM) was “D (single point inhibition values of 0-33% (activity level D))”. Also, the “% inh @ 10 uM C. parvum” value (single point inhibition at 10 uM) is “F (between 67% and 100% (activity level F))”.

Take `O=C(Nc1cc2[nH]c(-c3ccnc(OCC(F)F)n3)cc2cn1)c1cnn(CC2CCCO2)c1` (stereo in doubt) [Example 234, (S)-N-(2-(2-(2,2-difluoroethoxy)pyrimidin-4-yl)-1H-pyrrolo[3,2-c]pyridin-6-yl)-1-((tetrahydrofuran-2-yl)methyl)-1H-pyrazole-4-carboxamdie]: the inhibition at 1 µM under setting [4] was 33 to 66%. The inhibition at 10 µM under setting [5] was 33 to 66%. On to `Cc1cc(-c2cc3cnc(NC4CCCOC4)cc3[nH]2)ccn1` (stereo in doubt) [Example 356, (R)-2-(2-methylpyridin-4-yl)-N-(tetrahydro-2H-pyran-3-yl)-1H-pyrrolo[3,2-c]pyridin-6-amine], for which the EC50 was < 0.5 µM.

With `COc1nccc(-c2cc3cnc(NC(=O)c4cn(C)nc4C)cc3[nH]2)n1` [Example 250, N-(2-(2-methoxypyrimidin-4-yl)-1H-pyrrolo[3,2-c]pyridin-6-yl)-1,3-dimethyl-1H-pyrazole-4-carboxamide], the inhibition at 1 µM under setting [4] lay within 0 to 33%. For the same compound, the inhibition at 10 µM under setting [5] was in the range of 0 to 33%. Turning to `Cn1cc(-c2cc3cnc(Nc4ccc(F)cc4)cc3n2C)cn1` [Example 235, N-(4-fluorophenyl)-1-methyl-2-(1-methyl-1H-pyrazol-4-yl)-1H-pyrrolo[3,2-c]pyridin-6-amine], the inhibition at 1 µM under setting [4] was in the range of 0 to 33%. Moreover, the inhibition at 10 µM under setting [5] is 33 to 66%.

For the origin of these results see patent US20240124444A1 (Celgene Corporation, priority 2020, published 2024).
